Source: patent US20220218852A1, “NOVEL RADIOLABELLED CXCR4-TARGETING COMPOUNDS FOR DIAGNOSIS AND THERAPY” (PROVINCIAL HEALTH SERVICES AUTHORITY, priority 2019, published 2022)
Read-outs that look alike come from different tables or passages of the source. Positions of bridges follow the written chain, without caps; N, C: chain ends. Non-standard residues stand in square brackets, D forms with d. Residues, ends and D or L forms follow the SMILES beside them. Groups on a side chain read outwards from the residue. *: point of attachment. X1 = O=C(O)CC[C@H](NC(=O)CN1CCN(CC(=O)O)CCN(CC(=O)O)CCN(CC(=O)O)CC1)C(=O)N[C@@H](CCCCNC(=O)CNC(=O)CCCc1ccc(F)cc1)C(=O)*; X2 = Cc1ccc(CCCC(=O)NCC(=O)NCCCC[C@H](NC(=O)[C@H](CCC(=O)O)NC(=O)CN2CCN(CC(=O)O)CCN(CC(=O)O)CCN(CC(=O)O)CC2)C(=O)*)cc1; 2Nal = N[C@@H](Cc1ccc2ccccc2c1)C(=O)O; Lys(iPr) = CC(C)NCCCC[C@H](N)C(=O)O

Experiments:
[1] = Biodistribution in Daudi tumor-bearing mice; type: in vivo; conditions: male, NOD.Cg-Rag1^tm1MomII2rg^tm1Wjl/SzJ (NRG), mouse, iv, total radioactivity; for tissue uptake at 3 h: Daudi tumor-bearing mice; for tissue uptake at 1 h: Daudi xenograft bearing mice
Experimental: (§1) For Daudi, Z138, GRANTA519 and Jeko1 xenografts, male NOD.Cg-Rag1^tm1MomII2rg^tm1Wjl/SzJ (NRG) mice were subcutaneously inoculated on the left flank with 5×10^6 cells (100 μL; 1:1 ratio of PBS/Matrigel) and tumors were grown to a size of 200-500 mm^3. For PC-3 xenografts, male NOD.Cg-Rag1^tm1MomII2rg^tm1Wjl/SzJ (NRG) mice were subcutaneously inoculated on the left flank with 5×10^6 PC-3 cells (100 μL; 1:1 ratio of PBS/Matrigel) and tumors were grown to a size of 200-400 mm^3.
(§2) The mice were euthanized via CO2 inhalation while anesthetized with isoflurane. Tissues were harvested, washed in PBS, blotted dry, weighed, and measured on a Hidex AMG Automatic Gamma Counter.

[2] = tested on: Daudi Burkitt's lymphoma xenografts; assay: Biodistribution in Daudi tumor-bearing mice; type: in vivo; conditions: for Ratio Tumor: Blood / Ratio Tumor: Bone / Ratio Tumor: Liver / Ratio Tumor: Lung / Ratio Tumor: Muscle / Ratio Tumor: Spleen: Daudi tumor-bearing mice, 3 h; for Ratio Tumour:Blood / Ratio Tumour:Bone / Ratio Tumour:Liver / Ratio Tumour:Lung / Ratio Tumour:Muscle / Ratio Tumour:Spleen: Daudi xenograft bearing mice, 1 h
Experimental: as §1, §2

[3] = Daudi tumor, read-out: Biodistribution Daudi (tumor)
[4] = Daudi tumour, read-out: Biodistribution Daudi (tumour)
[5] = adrenals, read-out: Biodistribution Adrenals
[6] = blood, read-out: Biodistribution Blood
[7] = bone, read-out: Biodistribution Bone
[8] = brain, read-out: Biodistribution Brain
[9] = fat, read-out: Biodistribution Fat
[10] = heart, read-out: Biodistribution Heart
[11] = intestine, read-out: Biodistribution Intestine
[12] = kidney, read-out: Biodistribution Kidney
[13] = liver, read-out: Biodistribution Liver
[14] = lung, read-out: Biodistribution Lung
[15] = muscle, read-out: Biodistribution Muscle
[16] = pancreas, read-out: Biodistribution Pancreas
[17] = spleen, read-out: Biodistribution Spleen
[18] = stomach, read-out: Biodistribution Stomach
[19] = testes, read-out: Biodistribution Testes

CC(C)NCCCC[C@@H]1NC(=O)[C@H](Cc2ccc(O)cc2)NC(=O)[C@H](Cc2ccccc2)NC(=O)CC[C@H](C(=O)N[C@@H](CCCCNC(C)C)C(=O)N[C@@H](CCCCNC(=O)[C@H](CCC(=O)O)NC(=O)[C@H](CCCCNC(=O)CNC(=O)CCCc2ccc(F)cc2)NC(=O)[C@H](CCC(=O)O)NC(=O)CN2CCN(CC(=O)O)CCN(CC(=O)O)CCN(CC(=O)O)CC2)C(N)=O)NC(=O)CNC(=O)[C@H](Cc2ccc3ccccc3c2)NC(=O)[C@@H](CCCNC(=N)N)NC1=O [[^68Ga]Ga-BL27, metal not drawn] (FY[Lys(iPr)][dR][2Nal]G[dE][Lys(iPr)]K([Glu-X1])-NH2; lactam N-7)
tissue uptake at 3 h [1, 3]: 10.4 %ID/g | tissue uptake at 1 h [1, 4]: 8.78 %ID/g | tissue uptake at 3 h [1, 5]: 0.58 %ID/g | tissue uptake at 1 h [1, 5]: 1.66 %ID/g | tissue uptake at 3 h [1, 6]: 0.95 %ID/g | tissue uptake at 1 h [1, 6]: 4.6 %ID/g | tissue uptake at 3 h [1, 7]: 0.27 %ID/g | tissue uptake at 1 h [1, 7]: 0.66 %ID/g | tissue uptake at 3 h [1, 8]: 0.03 %ID/g | tissue uptake at 1 h [1, 8]: 0.07 %ID/g | tissue uptake at 3 h [1, 9]: 0.09 %ID/g | tissue uptake at 1 h [1, 9]: 0.35 %ID/g | tissue uptake at 3 h [1, 10]: 0.32 %ID/g | tissue uptake at 1 h [1, 10]: 1.27 %ID/g | tissue uptake at 3 h [1, 11]: 0.36 %ID/g | tissue uptake at 1 h [1, 11]: 0.85 %ID/g | tissue uptake at 3 h [1, 12]: 4.77 %ID/g | tissue uptake at 1 h [1, 12]: 6.21 %ID/g | tissue uptake at 3 h [1, 13]: 2.64 %ID/g | tissue uptake at 1 h [1, 13]: 2.61 %ID/g | tissue uptake at 3 h [1, 14]: 2.1 %ID/g | tissue uptake at 1 h [1, 14]: 7.23 %ID/g | tissue uptake at 3 h [1, 15]: 0.13 %ID/g | tissue uptake at 1 h [1, 15]: 0.43 %ID/g | tissue uptake at 3 h [1, 16]: 0.26 %ID/g | tissue uptake at 1 h [1, 16]: 0.62 %ID/g | tissue uptake at 3 h [1, 17]: 1.06 %ID/g | tissue uptake at 1 h [1, 17]: 2.82 %ID/g | tissue uptake at 3 h [1, 18]: 0.12 %ID/g | tissue uptake at 1 h [1, 18]: 0.19 %ID/g | tissue uptake at 3 h [1, 19]: 0.31 %ID/g | tissue uptake at 1 h [1, 19]: 0.8 %ID/g | Ratio Tumor: Blood [2]: 10.85 | Ratio Tumor: Bone [2]: 38.31 | Ratio Tumor: Liver [2]: 3.91 | Ratio Tumor: Lung [2]: 5.59 | Ratio Tumor: Muscle [2]: 83.68 | Ratio Tumor: Spleen [2]: 10.08 | Ratio Tumour:Blood [2]: 1.99 | Ratio Tumour:Bone [2]: 13.68 | Ratio Tumour:Liver [2]: 3.46 | Ratio Tumour:Lung [2]: 1.27 | Ratio Tumour:Muscle [2]: 21.47 | Ratio Tumour:Spleen [2]: 3.37

Cc1ccc(CCCC(=O)NCC(=O)NCCCC[C@H](NC(=O)[C@H](CCC(=O)O)NC(=O)CN2CCN(CC(=O)O)CCN(CC(=O)O)CCN(CC(=O)O)CC2)C(=O)N[C@@H](CCC(=O)O)C(=O)NCCCC[C@H](NC(=O)[C@H](CCCCNC(C)C)NC(=O)[C@H]2CCC(=O)N[C@@H](Cc3ccccc3)C(=O)N[C@@H](Cc3ccc(O)cc3)C(=O)N[C@@H](CCCCNC(C)C)C(=O)N[C@H](CCCNC(=N)N)C(=O)N[C@@H](Cc3ccc4ccccc4c3)C(=O)NCC(=O)N2)C(N)=O)cc1 [[^68Ga]Ga-BL28, metal not drawn] (FY[Lys(iPr)][dR][2Nal]G[dE][Lys(iPr)]K([Glu-X2])-NH2; lactam N-7)
tissue uptake at 3 h [1, 3]: 7.82 %ID/g | tissue uptake at 1 h [1, 4]: 4.59 %ID/g | tissue uptake at 3 h [1, 5]: 2.46 %ID/g | tissue uptake at 1 h [1, 5]: 2.53 %ID/g | tissue uptake at 3 h [1, 6]: 11.6 %ID/g | tissue uptake at 1 h [1, 6]: 14.7 %ID/g | tissue uptake at 3 h [1, 7]: 0.94 %ID/g | tissue uptake at 1 h [1, 7]: 1.14 %ID/g | tissue uptake at 3 h [1, 8]: 0.17 %ID/g | tissue uptake at 1 h [1, 8]: 0.19 %ID/g | tissue uptake at 3 h [1, 9]: 0.56 %ID/g | tissue uptake at 1 h [1, 9]: 0.64 %ID/g | tissue uptake at 3 h [1, 10]: 2.29 %ID/g | tissue uptake at 1 h [1, 10]: 3.21 %ID/g | tissue uptake at 3 h [1, 11]: 1 %ID/g | tissue uptake at 1 h [1, 11]: 1.21 %ID/g | tissue uptake at 3 h [1, 12]: 4.76 %ID/g | tissue uptake at 1 h [1, 12]: 5.41 %ID/g | tissue uptake at 3 h [1, 13]: 2.92 %ID/g | tissue uptake at 1 h [1, 13]: 2.92 %ID/g | tissue uptake at 3 h [1, 14]: 5.35 %ID/g | tissue uptake at 1 h [1, 14]: 7.11 %ID/g | tissue uptake at 3 h [1, 15]: 0.76 %ID/g | tissue uptake at 1 h [1, 15]: 0.96 %ID/g | tissue uptake at 3 h [1, 16]: 1.21 %ID/g | tissue uptake at 1 h [1, 16]: 1.49 %ID/g | tissue uptake at 3 h [1, 17]: 2.34 %ID/g | tissue uptake at 1 h [1, 17]: 2.21 %ID/g | tissue uptake at 3 h [1, 18]: 0.38 %ID/g | tissue uptake at 1 h [1, 18]: 0.47 %ID/g | tissue uptake at 3 h [1, 19]: 2.05 %ID/g | tissue uptake at 1 h [1, 19]: 1.73 %ID/g | Ratio Tumor: Blood [2]: 0.68 | Ratio Tumor: Bone [2]: 8.55 | Ratio Tumor: Liver [2]: 2.71 | Ratio Tumor: Lung [2]: 1.46 | Ratio Tumor: Muscle [2]: 10.49 | Ratio Tumor: Spleen [2]: 3.38 | Ratio Tumour:Blood [2]: 0.31 | Ratio Tumour:Bone [2]: 4.12 | Ratio Tumour:Liver [2]: 1.59 | Ratio Tumour:Lung [2]: 0.65 | Ratio Tumour:Muscle [2]: 4.82 | Ratio Tumour:Spleen [2]: 2.08
